Where two headings read alike, the source gives them in different places.
System: HCV 1b-377-neo replicon cells
Assay: HCV replicon assay, HCV 1b-377-neo replicon cells (1b FRET)
Type: cell-based, Hepatitis C virus genotype 1b
Conditions: HCV 1b-377-neo replicon cells, HCV 1b genotype, read-out: EC50 range against HCV 1b (Table 2, Range)
In short: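 Compounds were tested in genotype 1b subgenomic replicon cells carrying a neomycin marker, alongside a matched replicon line with an NS5A Y2065H substitution that confers resistance to a reference NS5A inhibitor.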

Structure (SMILES) | EC50 (Hepatitis C virus) | EC50
COC(=O)N[C@@H](C(=O)N1CCC[C@H]1c1ncc(-c2ccc(-c3ccc(-c4cnc([C@@H]5CCCN5C(=O)[C@@H](c5ccccc5)N5CCC(C)(O)CC5)[nH]4)cc3)cc2)[nH]1)c1ccccc1 [Example 84-4, methyl ((1R)-2-((2S)-2-(5-(4′-(2-((2S)-1-((2R)-2-(4-hydroxy-4-methyl-1-piperidinyl)-2-phenylacetyl)-2-pyrrolidinyl)-1H-imidazol-5-yl)-4-biphenylyl)-1H-imidazol-2-yl)-1-pyrrolidinyl)-2-oxo-1-phenylethyl)carbamate] | 0.001 to 0.999 nM | 
COC(=O)N[C@@H](C(=O)N1CCC[C@H]1c1ncc(-c2ccc(-c3ccc(-c4cnc([C@@H]5CCCN5C(=O)CNC(=O)c5ccccc5)[nH]4)cc3)cc2)[nH]1)c1ccccc1 [Example 84-7, methyl ((1R)-2-((2S)-2-(5-(4′-(2-((2S)-1-(N-benzoylglycyl)-2-pyrrolidinyl)-1H-imidazol-5-yl)-4-biphenylyl)-1H-imidazol-2-yl)-1-pyrrolidinyl)-2-oxo-1-phenylethyl)carbamate] | 1 to 99 nM | 
COC(=O)N[C@@H](C(=O)N1CCC[C@H]1c1ncc(-c2ccc(-c3ccc(-c4cnc([C@@H]5CCCN5C(=O)c5snnc5-c5ccccc5)[nH]4)cc3)cc2)[nH]1)c1ccccc1 [Example 84-10, methyl ((1R)-2-oxo-1-phenyl-2-((2S)-2-(5-(4′-(2-((2S)-1-((4-phenyl-1,2,3-thiadiazol-5-yl)carbonyl)-2-pyrrolidinyl)-1H-imidazol-5-yl)-4-biphenylyl)-1H-imidazol-2-yl)-1-pyrrolidinyl)ethyl)carbamate] | 1 to 99 nM | 
COC(=O)N[C@@H](C(=O)N1CCC[C@H]1c1ncc(-c2ccc(-c3ccc(-c4cnc([C@@H]5CCCN5C(=O)C5(C)CCN(C(=O)OC(C)(C)C)CC5)[nH]4)cc3)cc2)[nH]1)c1ccccc1 [Example 84-12, tert-butyl 4-(((2S)-2-(5-(4′-(2-((2S)-1-((2R)-2-((methoxycarbonyl)amino)-2-phenylacetyl)-2-pyrrolidinyl)-1H-imidazol-5-yl)-4-biphenylyl)-1H-imidazol-2-yl)-1-pyrrolidinyl)carbonyl)-4-methyl-1-piperidinecarboxylate] | 0.001 to 0.999 nM | 
COC(=O)N[C@@H](C(=O)N1CCC[C@H]1c1ncc(-c2ccc(-c3ccc(-c4cnc([C@@H]5CCCN5C(=O)Cc5cccc(O)c5)[nH]4)cc3)cc2)[nH]1)c1ccccc1 [Example 84-14, methyl ((1R)-2-((2S)-2-(5-(4′-(2-((2S)-1-((3-hydroxyphenyl)acetyl)-2-pyrrolidinyl)-1H-imidazol-5-yl)-4-biphenylyl)-1H-imidazol-2-yl)-1-pyrrolidinyl)-2-oxo-1-phenylethyl)carbamate] | 1 to 99 nM | 
COC(=O)N[C@@H](C(=O)N1CCC[C@H]1c1ncc(-c2ccc(-c3ccc(-c4cnc([C@@H]5CCCN5C(=O)CCN(C)C)[nH]4)cc3)cc2)[nH]1)c1ccccc1 [Example 84-15, methyl ((1R)-2-((2S)-2-(5-(4′-(2-((2S)-1-(N,N-dimethyl-beta-alanyl)-2-pyrrolidinyl)-1H-imidazol-5-yl)-4-biphenylyl)-1H-imidazol-2-yl)-1-pyrrolidinyl)-2-oxo-1-phenylethyl)carbamate] | 1 to 99 nM | 
COC(=O)N[C@@H](C(=O)N1CCC[C@H]1c1ncc(-c2ccc(-c3ccc(-c4cnc([C@@H]5CCCN5C(=O)[C@@H]5CCN(Cc6ccccc6)C5)[nH]4)cc3)cc2)[nH]1)c1ccccc1 [Example 84-17, methyl ((1R)-2-((2S)-2-(5-(4′-(2-((2S)-1-(((3R)-1-benzyl-3-pyrrolidinyl)carbonyl)-2-pyrrolidinyl)-1H-imidazol-5-yl)-4-biphenylyl)-1H-imidazol-2-yl)-1-pyrrolidinyl)-2-oxo-1-phenylethyl)carbamate] | 0.001 to 0.999 nM | 
COC(=O)N[C@@H](C(=O)N1CCC[C@H]1c1ncc(-c2ccc(-c3ccc(-c4cnc([C@@H]5CCCN5C(=O)C[C@@H]5CCCN5C(=O)OC(C)(C)C)[nH]4)cc3)cc2)[nH]1)c1ccccc1 [Example 84-18, tert-butyl (2S)-2-(2-((2S)-2-(5-(4′-(2-((2S)-1-((2R)-2-((methoxycarbonyl)amino)-2-phenylacetyl)-2-pyrrolidinyl)-1H-imidazol-5-yl)-4-biphenylyl)-1H-imidazol-2-yl)-1-pyrrolidinyl)-2-oxoethyl)-1-pyrrolidinecarboxylate] | 1 to 99 nM | 
COC(=O)N[C@@H](C(=O)N1CCC[C@H]1c1ncc(-c2ccc(-c3ccc(-c4cnc([C@@H]5CCCN5C(=O)Cc5cc(C)[nH]n5)[nH]4)cc3)cc2)[nH]1)c1ccccc1 [Example 84-19, methyl ((1R)-2-((2S)-2-(5-(4′-(2-((2S)-1-((5-methyl-1H-pyrazol-3-yl)acetyl)-2-pyrrolidinyl)-1H-imidazol-5-yl)-4-biphenylyl)-1H-imidazol-2-yl)-1-pyrrolidinyl)-2-oxo-1-phenylethyl)carbamate] | 1 to 99 nM | 
COC(=O)N[C@@H](C(=O)N1CCC[C@H]1c1ncc(-c2ccc(-c3ccc(-c4cnc([C@@H]5CCCN5C(=O)[C@@H]5Cc6ccc(O)cc6CN5)[nH]4)cc3)cc2)[nH]1)c1ccccc1 [Example 84-20, methyl ((1R)-2-((2S)-2-(5-(4′-(2-((2S)-1-(((3S)-7-hydroxy-1,2,3,4-tetrahydro-3-isoquinolinyl)carbonyl)-2-pyrrolidinyl)-1H-imidazol-5-yl)-4-biphenylyl)-1H-imidazol-2-yl)-1-pyrrolidinyl)-2-oxo-1-phenylethyl)carbamate] | 1 to 99 nM | 
COC(=O)N[C@@H](C(=O)N1CCC[C@H]1c1ncc(-c2ccc(-c3ccc(-c4cnc([C@@H]5CCCN5C(=O)CCN5CCCCC5)[nH]4)cc3)cc2)[nH]1)c1ccccc1 [Example 84-24, methyl ((1R)-2-oxo-1-phenyl-2-((2S)-2-(5-(4′-(2-((2S)-1-(3-(1-piperidinyl)propanoyl)-2-pyrrolidinyl)-1H-imidazol-5-yl)-4-biphenylyl)-1H-imidazol-2-yl)-1-pyrrolidinyl)ethyl)carbamate] | 0.001 to 0.999 nM | 
COC(=O)N[C@@H](C(=O)N1CCC[C@H]1c1ncc(-c2ccc(-c3ccc(-c4cnc([C@@H]5CCCN5C(=O)COc5ccccc5OC)[nH]4)cc3)cc2)[nH]1)c1ccccc1 [Example 84-26, methyl ((1R)-2-((2S)-2-(5-(4′-(2-((2S)-1-((2-methoxyphenoxy)acetyl)-2-pyrrolidinyl)-1H-imidazol-5-yl)-4-biphenylyl)-1H-imidazol-2-yl)-1-pyrrolidinyl)-2-oxo-1-phenylethyl)carbamate] | 0.001 to 0.999 nM | 
COC(=O)N[C@@H](C(=O)N1CCC[C@H]1c1ncc(-c2ccc(-c3ccc(-c4cnc([C@@H]5CCCN5C(=O)C5CN(C(=O)OC(C)(C)C)C5)[nH]4)cc3)cc2)[nH]1)c1ccccc1 [Example 84-27, tert-butyl 3-(((2S)-2-(5-(4′-(2-((2S)-1-((2R)-2-((methoxycarbonyl)amino)-2-phenylacetyl)-2-pyrrolidinyl)-1H-imidazol-5-yl)-4-biphenylyl)-1H-imidazol-2-yl)-1-pyrrolidinyl)carbonyl)-1-azetidinecarboxylate] | 0.001 to 0.999 nM | 
COC(=O)N[C@@H](C(=O)N1CCC[C@H]1c1ncc(-c2ccc(-c3ccc(-c4cnc([C@@H]5CCCN5C(=O)[C@H]5CCN(Cc6ccccc6)C5)[nH]4)cc3)cc2)[nH]1)c1ccccc1 [Example 84-28] |  | 0.001 to 0.999 nM
